According to paper PMC11279916, “Application of ^99mTc-Labeled WL12 Peptides as a Tumor PD-L1-Targeted SPECT Imaging Agent: Kit Formulation, Preclinical Evaluation, and Study on the Influence of Coligands” (Pharmaceuticals, 2024):

Biological target: PD-L1 protein (Homo sapiens, UniProt Q9NZQ7)
Assay: TR-FRET in vitro affinity assay (IC50)
Format: binding
Settings: PD-L1-biotin / PD-1-Eu
Protocol: Fig. S3. HPLC analysis of HYNIC-WL12 (tR = 14.29 min, purity 95.84%).
In Vitro Affinity Assay: Determination of IC50
The affinity of WL12 and HYNIC-WL12 for the PD-L1 protein was determined via a time-resolved fluorescence energy transfer (TR-FRET) assay. In brief, 200 nL of WL12 or HYNIC-WL12 solutions at different concentrations (from 0.5-10000 nM) in 10% ethanol were transferred to 384-well plates on an Echo550 […]
instrument. Then, 5 µL of PD-L1-biotin solution was added, and the plates were centrifuged at 1000 rpm for 30 s and incubated at room temperature. After incubation for 15 min, the mixed solution containing PD-1-Eu and dye-labeled acceptor was added. Then, the plates were centrifuged at 1000 rpm for 30 s and incubated for 90 min at room temperature. Finally, the 665 nm-to-615 nm ratios were read on a microplate reader, and the IC50 values of the two peptides were calculated. […]
For RP-HPLC analysis of [99mTc]Tc-HYNIC-WL12-tricine/M, phase A was water containing 0.1% trifluoroacetic acid (TFA), and phase B was acetonitrile containing 0.1% trifluoroacetic acid (TFA). […] Additionally, the radiochemical purity of [99mTc]Tc-HYNIC-WL12-tricine/M was determined by instant thin layer chromatography on silica gel (iTLC-SG, Agilent, China) using acid-citrate-dextrose solution (ACD solution, pH = 4.5-5.5) as the mobile phase solvent. […]
Effect of HYNIC-WL12 Quantities on the Radiochemical Yield […]

Chain of PD-L1 protein (Q9NZQ7 19-238 limits assumed): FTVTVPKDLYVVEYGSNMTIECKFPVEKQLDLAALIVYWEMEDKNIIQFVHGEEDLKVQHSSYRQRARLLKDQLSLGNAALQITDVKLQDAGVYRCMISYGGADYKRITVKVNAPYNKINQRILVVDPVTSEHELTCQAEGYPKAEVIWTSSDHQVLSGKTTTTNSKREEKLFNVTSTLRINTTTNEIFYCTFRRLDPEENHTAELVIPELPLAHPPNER

Structure (SMILES): CCCC[C@H]1C(=O)N(C)[C@@H](CCCC)C(=O)N[C@@H](CCCNC(=O)c2ccc(NN)nc2)C(=O)N[C@H](C(=O)NCC(N)=O)CSCC(=O)N[C@@H](Cc2ccc(O)cc2)C(=O)N(C)[C@@H](C)C(=O)N[C@@H](CC(N)=O)C(=O)N2CCC[C@H]2C(=O)N[C@@H](Cc2c[nH]cn2)C(=O)N[C@@H](CC(C)C)C(=O)N2C[C@H](O)C[C@H]2C(=O)N[C@@H](Cc2c[nH]c3ccccc23)C(=O)N[C@@H](CO)C(=O)N[C@@H](Cc2cn(C)c3ccccc23)C(=O)N1C [HYNIC-WL12]
- IC50: 0.17 µM
